ChEMBL document CHEMBL3045468, “I2 catalyzed FriedelCrafts alkylation reaction of substituted anilines with ninhydrin: formation of novel products and their antimicrobial evaluation” (2013)
Values after ≈ are worked out from the molar mass of the structure shown.

How the values were obtained:
Type in all cases: functional
Bacillus pumilus = test: Antibacterial activity against Bacillus pumilus 11778 clinical isolate assessed as growth inhibition after 24 hr by agar dilution method; settings: Bacillus pumilus, 11778, 24 h
Shigella dysenteriae = test: Antibacterial activity against Shigella dysenteriae 15 clinical isolate assessed as growth inhibition after 24 hr by agar dilution method; settings: Shigella dysenteriae, 15, 24 h
Staphylococcus aureus = test: Antibacterial activity against Staphylococcus aureus 29737 clinical isolate assessed as growth inhibition after 24 hr by agar dilution method; settings: Staphylococcus aureus, 29737, 24 h

## CC1(C)S[C@@H]2[C@H](NC(=O)[C@H](N)c3ccc(O)cc3)C(=O)N2[C@H]1C(=O)O [AMOXICILLIN]
Bacillus pumilus
  MIC: 500 µg/mL (≈ 1370 µM)
Shigella dysenteriae
  MIC: 10000 µg/mL (≈ 27400 µM)
Staphylococcus aureus
  MIC: 500 µg/mL (≈ 1370 µM)
